{"source": "paper PMC7311426", "about": "“An amphipathic peptide with antibiotic activity against multidrug-resistant Gram-negative bacteria” (Nature Communications, 2020)", "test_system": "P. aeruginosa", "assay": "microbe, parasite or virus in culture", "in_short": "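Broth microdilution in MHB, 2-fold 12-point series from 128 or 64 down to 0.06 or 0.03 μg mL^−1, 5 × 10^5 CFU mL^−1. Extra runs in CAMHB per CLSI and in MHB with 1% agarose; n ≥ 6.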"}
{"smiles": "CN(C)c1cc(NC(=O)CNC(C)(C)C)c(O)c2c1C[C@H]1C[C@H]3[C@H](N(C)C)C(O)=C(C(N)=O)C(=O)[C@@]3(O)C(O)=C1C2=O", "note": "[TIG]", "values": [{"measurement": "MIC, broth microdilution", "setting": "P. aeruginosa ATCC 27853 parent strain not exposed to drug", "value": 8, "unit": "µg/mL"}, {"measurement": "MIC, broth microdilution", "setting": "P. aeruginosa ATCC 27853 spontaneous mutant, AA139 selection 4X, plate 1, colony 1, drug-free passage 1", "value": "8, 8 µg/mL"}, {"measurement": "MIC, broth microdilution", "setting": "P. aeruginosa ATCC 27853 spontaneous mutant, AA139 selection 4X, plate 1, colony 1, drug-free passage 5", "value": "8, 8 µg/mL"}, {"measurement": "MIC, broth microdilution", "setting": "P. aeruginosa ATCC 27853 spontaneous mutant, AA139 selection 4X, plate 1, colony 2, drug-free passage 1", "value": "8, 8 µg/mL"}, {"measurement": "MIC, broth microdilution", "setting": "P. aeruginosa ATCC 27853 spontaneous mutant, AA139 selection 4X, plate 1, colony 2, drug-free passage 5", "value": "8, 8 µg/mL"}, {"measurement": "MIC, broth microdilution", "setting": "P. aeruginosa ATCC 27853 spontaneous mutant, AA139 selection 4X, plate 1, colony 3, drug-free passage 1", "value": "8, 8 µg/mL"}, {"measurement": "MIC, broth microdilution", "setting": "P. aeruginosa ATCC 27853 spontaneous mutant, AA139 selection 4X, plate 1, colony 3, drug-free passage 5", "value": "8, 8 µg/mL"}, {"measurement": "MIC, broth microdilution", "setting": "P. aeruginosa ATCC 27853 spontaneous mutant, AA139 selection 4X, plate 1, colony 4, drug-free passage 1", "value": "8, 8 µg/mL"}, {"measurement": "MIC, broth microdilution", "setting": "P. aeruginosa ATCC 27853 spontaneous mutant, AA139 selection 4X, plate 1, colony 4, drug-free passage 5", "value": "8, 8 µg/mL"}, {"measurement": "MIC, broth microdilution", "setting": "P. aeruginosa ATCC 27853 spontaneous mutant, AA139 selection 4X, plate 1, colony 5, drug-free passage 1", "value": "16, 16 µg/mL"}, {"measurement": "MIC, broth microdilution", "setting": "P. aeruginosa ATCC 27853 spontaneous mutant, AA139 selection 4X, plate 1, colony 5, drug-free passage 5", "value": "16, 16 µg/mL"}, {"measurement": "MIC, broth microdilution", "setting": "P. aeruginosa ATCC 27853 spontaneous mutant, AA139 selection 4X, plate 1, colony 6, drug-free passage 1", "value": "8, 8 µg/mL"}, {"measurement": "MIC, broth microdilution", "setting": "P. aeruginosa ATCC 27853 spontaneous mutant, AA139 selection 4X, plate 1, colony 6, drug-free passage 5", "value": "8, 8 µg/mL"}, {"measurement": "MIC, broth microdilution", "setting": "P. aeruginosa ATCC 27853 spontaneous mutant, AA139 selection 4X, plate 2, colony 1, drug-free passage 1", "value": "8, 8 µg/mL"}, {"measurement": "MIC, broth microdilution", "setting": "P. aeruginosa ATCC 27853 spontaneous mutant, AA139 selection 4X, plate 2, colony 1, drug-free passage 5", "value": "8, 8 µg/mL"}, {"measurement": "MIC, broth microdilution", "setting": "P. aeruginosa ATCC 27853 spontaneous mutant, AA139 selection 4X, plate 2, colony 2, drug-free passage 1", "value": "8, 8 µg/mL"}, {"measurement": "MIC, broth microdilution", "setting": "P. aeruginosa ATCC 27853 spontaneous mutant, AA139 selection 4X, plate 2, colony 2, drug-free passage 5", "value": "8, 8 µg/mL"}, {"measurement": "MIC, broth microdilution", "setting": "P. aeruginosa ATCC 27853 spontaneous mutant, AA139 selection 4X, plate 2, colony 3, drug-free passage 1", "value": "8, 8 µg/mL"}, {"measurement": "MIC, broth microdilution", "setting": "P. aeruginosa ATCC 27853 spontaneous mutant, AA139 selection 4X, plate 2, colony 3, drug-free passage 5", "value": "8, 8 µg/mL"}, {"measurement": "MIC, broth microdilution", "setting": "P. aeruginosa ATCC 27853 spontaneous mutant, AA139 selection 4X, plate 2, colony 4, drug-free passage 1", "value": "8, 8 µg/mL"}, {"measurement": "MIC, broth microdilution", "setting": "P. aeruginosa ATCC 27853 spontaneous mutant, AA139 selection 4X, plate 2, colony 4, drug-free passage 5", "value": "8, 8 µg/mL"}, {"measurement": "MIC, broth microdilution", "setting": "P. aeruginosa ATCC 27853 spontaneous mutant, AA139 selection 8X, plate 1, colony 1, drug-free passage 1", "value": "8, 8 µg/mL"}, {"measurement": "MIC, broth microdilution", "setting": "P. aeruginosa ATCC 27853 spontaneous mutant, AA139 selection 8X, plate 1, colony 1, drug-free passage 5", "value": "8, 8 µg/mL"}, {"measurement": "MIC, broth microdilution", "setting": "P. aeruginosa ATCC 27853 spontaneous mutant, AA139 selection 8X, plate 1, colony 2, drug-free passage 1", "value": "8, 8 µg/mL"}, {"measurement": "MIC, broth microdilution", "setting": "P. aeruginosa ATCC 27853 spontaneous mutant, AA139 selection 8X, plate 1, colony 2, drug-free passage 5", "value": "8, 8 µg/mL"}, {"measurement": "MIC, broth microdilution", "setting": "P. aeruginosa ATCC 27853 spontaneous mutant, AA139 selection 8X, plate 1, colony 3, drug-free passage 1", "value": "8, 8 µg/mL"}, {"measurement": "MIC, broth microdilution", "setting": "P. aeruginosa ATCC 27853 spontaneous mutant, AA139 selection 8X, plate 1, colony 3, drug-free passage 5", "value": "8, 8 µg/mL"}, {"measurement": "MIC, broth microdilution", "setting": "P. aeruginosa ATCC 27853 spontaneous mutant, AA139 selection 8X, plate 1, colony 4, drug-free passage 1", "value": "8, 8 µg/mL"}, {"measurement": "MIC, broth microdilution", "setting": "P. aeruginosa ATCC 27853 spontaneous mutant, AA139 selection 8X, plate 1, colony 4, drug-free passage 5", "value": "8, 8 µg/mL"}, {"measurement": "MIC, broth microdilution", "setting": "P. aeruginosa ATCC 27853 spontaneous mutant, AA139 selection 8X, plate 1, colony 5, drug-free passage 1", "value": "8, 8 µg/mL"}, {"measurement": "MIC, broth microdilution", "setting": "P. aeruginosa ATCC 27853 spontaneous mutant, AA139 selection 8X, plate 1, colony 5, drug-free passage 5", "value": "8, 8 µg/mL"}, {"measurement": "MIC, broth microdilution", "setting": "P. aeruginosa UNT 138-1 parent strain not exposed to drug", "value": 8, "unit": "µg/mL"}, {"measurement": "MIC, broth microdilution", "setting": "P. aeruginosa UNT 138-1 spontaneous mutant, AA139 selection 4X, plate 1, colony 1, drug-free passage 1", "value": "16, 16 µg/mL"}, {"measurement": "MIC, broth microdilution", "setting": "P. aeruginosa UNT 138-1 spontaneous mutant, AA139 selection 4X, plate 1, colony 1, drug-free passage 5", "value": "16, 16 µg/mL"}, {"measurement": "MIC, broth microdilution", "setting": "P. aeruginosa UNT 138-1 spontaneous mutant, AA139 selection 4X, plate 1, colony 2, drug-free passage 1", "value": "16, 16 µg/mL"}, {"measurement": "MIC, broth microdilution", "setting": "P. aeruginosa UNT 138-1 spontaneous mutant, AA139 selection 4X, plate 1, colony 2, drug-free passage 5", "value": "16, 16 µg/mL"}, {"measurement": "MIC, broth microdilution", "setting": "P. aeruginosa UNT 138-1 spontaneous mutant, AA139 selection 4X, plate 1, colony 3, drug-free passage 1", "value": "16, 16 µg/mL"}, {"measurement": "MIC, broth microdilution", "setting": "P. aeruginosa UNT 138-1 spontaneous mutant, AA139 selection 4X, plate 1, colony 3, drug-free passage 5", "value": "16, 16 µg/mL"}, {"measurement": "MIC, broth microdilution", "setting": "P. aeruginosa UNT 138-1 spontaneous mutant, AA139 selection 4X, plate 1, colony 4, drug-free passage 1", "value": "16, 16 µg/mL"}, {"measurement": "MIC, broth microdilution", "setting": "P. aeruginosa UNT 138-1 spontaneous mutant, AA139 selection 4X, plate 1, colony 4, drug-free passage 5", "value": "16, 16 µg/mL"}, {"measurement": "MIC, broth microdilution", "setting": "P. aeruginosa UNT 138-1 spontaneous mutant, AA139 selection 4X, plate 1, colony 5, drug-free passage 1", "value": "16, 16 µg/mL"}]}
